pIC50: −log10 of the molar value. Marks after values point to notes of the source that are not given here.
Key:
[1] = Fluorescence property measurements (absorption/emission spectra); format: physicochemical; set-up: Stokes Shift: unit not given here
Description: The λabs and λem, of the target compounds were measured in aqueous solution (phosphate-buffered saline solution, PBS) at the concentration of 10^−5 M (Table 1).
Fluorescence spectra of all target compounds were determined in PBS and EtOH solutions (Table 1) with a Tecan Infinite 200 Microplate Reader. In all experiments, the excitation and the emission bandpass were set at λ = 5 nm. The emission spectra were obtained from λ = 280 to 850 nm, with excitation set at the appropriate excitation wavelength. Absorption spectra were recorded with a Shimadzu UV-1800 spectrophotometer.

SKOV-3 xenograft tumors = experiment: NIR fluorescence imaging / biodistribution in SKOV-3 s.c. xenograft models; format: in vivo, NSG mice; conditions: SKOV-3 s.c. mice, i.v.
Description: In addition to OVCAR-3, the COX-1 low expressing SKOV-3 cell line was subcutaneously xenografted to evaluate the specificity of RR11 and 23 (MSA14). RR11 exerted high tumor fluorescence already two hours after injection (n = 2) with similar organ biodistribution as already observed in OVCAR-3 xenografts (TBR = 1.28; Figure 4A and Figure 5A). 23 (MSA14) was evaluated at 6 and 24 h, with a dose of 100 µM and 500 µM in n = 4 SKOV-3 models. […] However, the tumor fluorescence intensity was not sufficient to discriminate between healthy organs and malignant tissue at low exposure times of 100 ms “ex vivo”. The fluorescence signal in COX-1 low-expressing SKOV-3 tumors might be an indication of non-specific compound accumulation.
Female NOD-scid IL2rγ^null (NSG) mice, aged 6 to 25 weeks were maintained under defined floral conditions and no more than five mice were housed in individually ventilated (HEPA-filtered air) cages, kept on a 12 h dark/night schedule at a constant temperature of 21 °C and at 50% relative humidity at the University of Bergen’s animal facility. Observations of body weight and general condition including activity levels, appearance, and food intake were monitored twice weekly, and humane endpoints were defined with the use of score sheets. When indicated, animals were euthanized according to institutional guidelines.
Single cell suspensions of SKOV-3 and OVCAR-3 ovarian cancer cells, cultured as previously described, were obtained by washing the adherent cells with PBS and detached with trypsin-EDTA for 3–5 min at 37 °C. For subcutaneous injection (s.c.), cells were resuspended in an ice-cold mixture of 100 µL per insulin syringe (3/10-cc with 30 g needle) comprising 50 μL saline, 25 µL medium, and 25 µL Matrigel (cat# 08-774-391, Corning Inc®, Fisher Scientific, Waltham, MA, USA). SKOV-3 and OVCAR-3 subcutaneous xenograft models were established through lateral flank injection of 5 × 10^6 cells and 1 × 10^6 cells, respectively, under 3.5% sevoflurane inhalation anesthesia (cat# 29960 SevoFlo, Zoetis, Louvain-la-Neuve, Belgium). Mice were imaged with RR11 and MSA14 when the caliper measurements reached 200–500 mm^3 (Volume = (height × width × length × π)/6).
“In vivo” and “ex vivo” FLI was performed with both COX-1 targeting compounds, the reference compound RR11 and the novel 23 (MSA14), at different concentrations and time points. Prior to FLI, mice were shaved to avoid autofluorescence background signal. The desired concentration (100 µM, 500 µM) of the compound stock solutions in DMSO were freshly diluted with PBS, before 100 µL was injected intravenously into the tail vein. FLI was performed with the IVIS Spectrum In Vivo Imaging System with a λabs 640 ± 15 nm bandpass filter (BP), λem 680 ± 10 nm BP for RR11, and λabs 745 ± 15 nm BP, λem 820 ± 10 nm BP for 23 (MSA14), 0.5–24 h after small molecule administration. All scans were acquired with epi-illumination and auto exposure. Regions of interest (ROI) were manually gated around the tumor, organs, or the whole ventral and lateral positioned mouse and calculated using the Living image software (Perkin Elmer). The ROI of the muscle at the flank region was used to calculate the tumor-to-background (TBR) ratios.

COX-2 = molecular target: T1, COX-2 (Homo sapiens, UniProt P35354); experiment: COX-2 inhibition, COX (ovine/human) inhibitor screening assay kit; format: biochemical; conditions: for COX-2 inhibitory activity (in words): up to 50 µM final concentration
T1 construct: purchased Cayman Chemicals (bought through Sigma-Aldrich) 560131
T1 sequence (P35354 18-604): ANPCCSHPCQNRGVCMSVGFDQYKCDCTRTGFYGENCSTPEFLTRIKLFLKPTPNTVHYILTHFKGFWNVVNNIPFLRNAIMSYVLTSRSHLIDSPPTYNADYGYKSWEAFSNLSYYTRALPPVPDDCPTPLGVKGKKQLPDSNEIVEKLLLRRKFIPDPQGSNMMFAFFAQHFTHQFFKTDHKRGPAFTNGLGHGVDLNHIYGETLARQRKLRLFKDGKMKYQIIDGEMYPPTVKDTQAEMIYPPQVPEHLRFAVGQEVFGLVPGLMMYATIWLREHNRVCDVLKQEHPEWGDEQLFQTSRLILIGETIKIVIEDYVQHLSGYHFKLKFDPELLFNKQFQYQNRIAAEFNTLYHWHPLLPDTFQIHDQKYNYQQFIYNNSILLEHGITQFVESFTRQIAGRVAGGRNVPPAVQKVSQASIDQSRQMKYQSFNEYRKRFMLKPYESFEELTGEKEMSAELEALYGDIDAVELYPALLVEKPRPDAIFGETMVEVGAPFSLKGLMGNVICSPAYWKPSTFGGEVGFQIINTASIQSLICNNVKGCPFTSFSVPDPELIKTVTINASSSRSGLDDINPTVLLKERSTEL
Description: Cell culture reagents were purchased from Euroclone (Milan, Italy). COX (ovine/human) inhibitor screening assay kit (Catalog No. 560131, Cayman Chemicals, Ann Arbor, MI, USA) was purchased from Sigma-Aldrich, Burlington, MA, USA. […] The other reagents were purchased from Sigma-Aldrich, Burlington, MA, USA.
The COX-1/2 inhibition screening experiments were carried out according to the manufacturer’s instructions. The plate was incubated for 60 min at r.t. under shaking and read with the Tecan Infinite 200 Microplate Reader at λ = 405 nm.
The graph between percent inhibition of the enzyme and corresponding concentration of the compound provided IC50 values for the probe compounds.

[2] = ethanol (10^−4 M), two bands, listed as 23

| λabs [1, 2] [nm] | λem [1, 2] [nm] | pIC50 (COX-2) | COX-2 inhibitory activity (in words) (COX-2) | COX-2 inhibitory activity (in words) (COX-2; listed as 23) | Stokes Shift ([1]; ethanol (10^−5 M)) | λabs ([1]; ethanol (10^−5 M)) | λem ([1]; ethanol (10^−5 M)) | COX-2 % inhib. (COX-2; at 50 µM compound final concentration) [%] | Structure (SMILES) | average TBR (SKOV-3 xenograft tumors; 6 h, 100 µM) | average TBR (SKOV-3 xenograft tumors; 6 h, 500 µM) | average TBR (SKOV-3 xenograft tumors; 24 h, 100 µM) | average TBR (SKOV-3 xenograft tumors; 24 h, 500 µM) | tumor-to-background ratio (TBR) (SKOV-3 xenograft tumors; two hours after injection) |
| --- | --- | --- | --- | --- | --- | --- | --- | --- | --- | --- | --- | --- | --- | --- |
| 770 | 822 | < 4.30 | did not inhibit | almost inactive |  |  |  |  | CCN1/C(=C/C=C/C=C/C=C/C2=[N+](CCCCCC(=O)NCCCCNC(=O)Cc3onc(-c4ccc(OC)cc4)c3-c3ccc(OC)cc3)c3ccc4ccccc4c3C2(C)C)C(C)(C)c2c1ccc1ccccc21 [23 (MSA14), 3-(6-(4-(2-(3,4-Bis(4-methoxyphenyl)isoxazole-5-yl)acetamido)butyl)amino-6-oxohexyl)-2-[7-(1,3-dihydro-1,1-dimethyl-3-ethyl-2H-benz[e]indolin-2-yl-idene)-1,3,5-heptatrienyl]-1,1-dimethyl-3-(6-carboxilato-hexyl)-1H-benz[e]indolium chloride] | 1.23 | 1.49 | 1.96 | 1.5 |  |
|  |  | 5.62 |  |  | 62 | 610 ^b nm | 672 ^b nm | 64 | COc1ccc(-c2noc(CC(=O)NCCCCNc3cc4[o+]c5cc(N(C)C)ccc5nc4c4ccccc34)c2-c2ccc(OC)cc2)cc1.[Cl-] [RR11, N-[4-(9-dimethylimino-9H-benzo[a]phenoxazin-5-ylamino)butyl]-2-(3,4-bis(4-methoxyphenyl)isoxazol-5-yl)acetamide chloride, reference compound] |  |  |  |  | 1.28 |
